Assay results from paper PMC7913927, “Leishmanicidal Activity of Betulin Derivatives in Leishmania amazonensis; Effect on Plasma and Mitochondrial Membrane Potential, and Macrophage Nitric Oxide and Superoxide Production” (Microorganisms, 2021).
Entries after “also recorded” stand apart in the source; their conditions may differ.

How the values were obtained:
[1] = tested on: L. (L.) amazonensis LTB0016 promastigotes; assay: Promastigote in vitro susceptibility (Alamar Blue/resazurin), reference strain; format: cell-based, Leishmania amazonensis; conditions: LTB0016, 50 µM
Protocol: The fluorometric method of Alamar Blue® (resazurin) was used. Promastigotes grown in biphasic agar-blood medium, at the exponential phase of growth, were seeded in flat-bottom 96-well culture plates, at a cell density of 1 × 10^6 parasites mL^−1 (200,000 parasites/well), in 180 µL of RPMIc without phenol red. Subsequently, either a sole concentration (50 µM), or increasing concentrations of compounds or drugs were applied, according to each treatment group, in volumes of 2 µL. Plates were kept at 26 °C, in a humid chamber, for 72 h. […] Live parasites are metabolically active and capable of reducing non-fluorescent resazurin (blue) to fluorescent resorufin (red). Fluorescence intensity is directly proportional to the number of viable cells. […] At least two independent experiments were performed in duplicate. The effect of trivalent antimonial [SbIII, potassium antimonyl tartrate trihydrate, Sigma-Aldrich, (St. Louis, MO, USA)] was included as positive control of the assay.

[2] = tested on: J774.1 macrophages, healthy or infected with LTB0016, VE98MR or VE2000MM; assay: Nitric oxide (NO) production, Griess reaction; format: cell-based, murine; conditions: non-infected and infected macrophages; 48 h; 18: 1 and 2 µM; 22: 2 and 4 µM
Protocol: Following a previously described procedure, infected and uninfected macrophage cultures were treated with test compounds to analyze their effect in Leishmania host cell nitric oxide (NO) production. J774.1 macrophages, at the third day of growth, were collected and seeded in flat-bottom 96-well culture plates, at a density of 1 × 10^6 cells mL^−1 (2 × 10^5 macrophages/well), in 200 µL of RPMIc. The plates were incubated for 2 h; once the supernatant was discarded, the medium was replaced with 200 µL of RPMIc mixed with infectious promastigotes in the stationary phase of growth (1 × 10^7 parasites/mL, 2 × 10^6 parasites/well), so that the ratio macrophage: parasites was 1:10 [41]. The plates were then incubated for 4 h, the medium was replaced with fresh RPMIc and the test compounds were applied, according to the different treatment groups. The plates were kept in incubation for 48 h, at 37 °C and 5% CO2.
From the culture supernatants, 50-µL aliquots were recovered and transferred to a new 96-well plate to perform the Griess reaction, 50 µL of Solution 1 [1% sulfanilamide dissolved in 2.5% phosphoric acid] was added, incubated for 5 min at RT and in the dark. […] Finally, the colorimetric reading was performed at 550 nm. […] Levels of NO2^− (expressed as µM of NO2^−) were calculated from a calibration curve constructed with increasing concentrations of sodium nitrite (NaNO2). […]

SMILES: C=C(C)C1CCC2(C=NO)CCC3(C)C(CCC4C5(C)CCC(=NO)C(C)(C)C5CCC43C)C12 (centres unmarked) [Compound 18]
- growth inhibition [1]: at least 75%
- Nitric oxide (NO) production by macrophages [2]: neither 18 nor 22 induced nitric oxide production in infected macrophages; also recorded: not capable of inducing NO production in any of the strains tested; also recorded: not capable of inducing NO production for any of the strains tested
